The series has as its system CCRIS mutagenicity, Ames/micronucleus/aberration tests. Nature of the series: CCRIS mutagenicity studies.
[1] abbreviates: Test System: AMES SALMONELLA TYPHIMURIUM, Strain/Indicator: TA98, Metabolic Activation: NONE, Method: PREINCUBATION
[2] abbreviates: Test System: AMES SALMONELLA TYPHIMURIUM, Strain/Indicator: TA100, Metabolic Activation: NONE, Method: PREINCUBATION
The mark [3] stands for this setting: Test System: AMES SALMONELLA TYPHIMURIUM, Strain/Indicator: TA98, Metabolic Activation: NONE, Method: STANDARD PLATE.
Where [4] appears, read: Test System: AMES SALMONELLA TYPHIMURIUM, Strain/Indicator: TA98, Metabolic Activation: RAT, LIVER, S-9, AROCLOR 1254, Method: STANDARD PLATE.
Setting [5] is: Test System: AMES SALMONELLA TYPHIMURIUM, Strain/Indicator: TA100, Metabolic Activation: NONE, Method: STANDARD PLATE.
The mark [6] stands for this setting: Test System: AMES SALMONELLA TYPHIMURIUM, Strain/Indicator: TA100, Metabolic Activation: RAT, LIVER, S-9, AROCLOR 1254, Method: STANDARD PLATE.
Where [7] appears, read: Test System: AMES SALMONELLA TYPHIMURIUM, Strain/Indicator: TA1537, Metabolic Activation: NONE, Method: STANDARD PLATE.
[8] abbreviates: Test System: AMES SALMONELLA TYPHIMURIUM, Strain/Indicator: TA1537, Metabolic Activation: RAT, LIVER, S-9, AROCLOR 1254, Method: STANDARD PLATE.

Calls of active or inactive are those of the source. No rule for the calls is given here.

7 compounds from PubChem BioAssay AID1259407 (Chemical Carcinogenesis Research Information System (CCRIS), 2018) can be followed below.

With `Cc1ccc([N+](=O)[O-])cc1N=O`, the mutagenic call under setting [1] was “active; positive”; the mutagenic call (Test System: AMES SALMONELLA TYPHIMURIUM, Strain/Indicator: TA98, Metabolic Activation: NONE, Method: SUSPENSION/PLATE) was “inactive; negative”; the mutagenic call (Test System: AMES SALMONELLA TYPHIMURIUM, Strain/Indicator: TA98, Metabolic Activation: RAT, LIVER, S-9, AROCLOR, Method: PREINCUBATION) was “active; positive”; the mutagenic call (Test System: AMES SALMONELLA TYPHIMURIUM, Strain/Indicator: TA98, Metabolic Activation: RAT, LIVER, S-9, PHENOBARBITAL AND 5,6-BENZOFLAVONE, Method: SUSPENSION/PLATE) is “inactive; negative”; the mutagenic call (Test System: AMES SALMONELLA TYPHIMURIUM, Strain/Indicator: TA100, Metabolic Activation: NONE, Method: SUSPENSION/PLATE) was “inactive; negative”; the mutagenic call (Test System: AMES SALMONELLA TYPHIMURIUM, Strain/Indicator: TA100, Metabolic Activation: RAT, LIVER, S-9, PHENOBARBITAL AND 5,6-BENZOFLAVONE, Method: SUSPENSION/PLATE) is “inactive; negative”.

Consider `Cc1cnc(C)c(C)n1`, for which the mutagenic call reads like this: under setting [1], “inactive; negative”; (Test System: AMES SALMONELLA TYPHIMURIUM, Strain/Indicator: TA98, Metabolic Activation: RAT, LIVER, S-9, AROCLOR 1254, Method: PREINCUBATION) “inactive; negative”; under setting [2], “inactive; negative”; (Test System: AMES SALMONELLA TYPHIMURIUM, Strain/Indicator: TA100, Metabolic Activation: RAT, LIVER, S-9, AROCLOR 1254, Method: PREINCUBATION) “inactive; negative”; (Test System: AMES SALMONELLA TYPHIMURIUM, Strain/Indicator: TA102, Metabolic Activation: NONE, Method: PREINCUBATION) “inactive; negative”; (Test System: AMES SALMONELLA TYPHIMURIUM, Strain/Indicator: TA102, Metabolic Activation: RAT, LIVER, S-9, AROCLOR 1254, Method: PREINCUBATION) “inactive; negative”.

For the compound `c1ccc2c(c1)OCCOCCOCCOCCO2`, the mutagenic call is, setting by setting: under setting [3], “inactive; negative”; under setting [4], “inactive; negative”; under setting [5], “inactive; negative”; under setting [6], “inactive; negative”; (Test System: AMES SALMONELLA TYPHIMURIUM, Strain/Indicator: TA1530, Metabolic Activation: NONE, Method: STANDARD PLATE) “inactive; negative”; (Test System: AMES SALMONELLA TYPHIMURIUM, Strain/Indicator: TA1530, Metabolic Activation: RAT, LIVER, S-9, AROCLOR 1254, Method: STANDARD PLATE) “inactive; negative”. Besides, the mutagenic call is, setting by setting: under setting [7], “inactive; negative”; under setting [8], “inactive; negative”.

On to `C=C(Br)CCl`, for which the mutagenic call is “active; positive” (Test System: AMES SALMONELLA TYPHIMURIUM, Strain/Indicator: TA100, Metabolic Activation: RAT, LIVER, MICROSOMES, PHENOBARBITAL, NADPH COFACTORS, Method: STANDARD PLATE) and “inactive; negative” (Test System: AMES SALMONELLA TYPHIMURIUM, Strain/Indicator: TA100, Metabolic Activation: RAT, LIVER, MICROSOMES, PHENOBARBITAL, Method: STANDARD PLATE).

As for `O=C(O)c1ccccn1`, the mutagenic call reads like this: (Test System: AMES SALMONELLA TYPHIMURIUM, Strain/Indicator: TA98, Metabolic Activation: HAMSTER, LIVER, S-9, AROCLOR 1254, Method: STANDARD PLATE) “inactive; negative”; under setting [3], “inactive; negative”; under setting [4], “inactive; negative”; (Test System: AMES SALMONELLA TYPHIMURIUM, Strain/Indicator: TA100, Metabolic Activation: HAMSTER, LIVER, S-9, AROCLOR 1254, Method: STANDARD PLATE) “inactive; negative”; under setting [5], “inactive; negative”; under setting [6], “inactive; negative”. The mutagenic call is “inactive; negative” (Test System: AMES SALMONELLA TYPHIMURIUM, Strain/Indicator: TA1535, Metabolic Activation: HAMSTER, LIVER, S-9, AROCLOR 1254, Method: STANDARD PLATE); “inactive; negative” (Test System: AMES SALMONELLA TYPHIMURIUM, Strain/Indicator: TA1535, Metabolic Activation: NONE, Method: STANDARD PLATE); “inactive; negative” (Test System: AMES SALMONELLA TYPHIMURIUM, Strain/Indicator: TA1535, Metabolic Activation: RAT, LIVER, S-9, AROCLOR 1254, Method: STANDARD PLATE); “inactive; negative” (Test System: AMES SALMONELLA TYPHIMURIUM, Strain/Indicator: TA1537, Metabolic Activation: HAMSTER, LIVER, S-9, AROCLOR 1254, Method: STANDARD PLATE); “inactive; negative” under setting [7]; “inactive; negative” under setting [8]. The mutagenic call runs as follows: (Test System: CHINESE HAMSTER OVARY CELLS, Strain/Indicator: CHO CELLS (HPRT)/6-THIOGUANINE, Metabolic Activation: NONE, Method: STANDARD PLATE) “inactive; negative”; (Test System: MOUSE LYMPHOMA CELLS, Strain/Indicator: L5178Y TK+/-, Metabolic Activation: NONE, Method: TFT RESISTANCE) “inactive; negative”; (Test System: MOUSE LYMPHOMA CELLS, Strain/Indicator: L5178Y TK+/-, Metabolic Activation: RAT, LIVER, S-9, AROCLOR 1254, Method: TFT RESISTANCE) “inactive; negative”; (Test System: MOUSE LYMPHOMA, Strain/Indicator: L5178Y (TK+/TK-), Metabolic Activation: NONE, Method: SUSPENSION/PLATE) “active; positive. reevaluation of results: equivocal”; (Test System: MOUSE LYMPHOMA, Strain/Indicator: L5178Y (TK+/TK-), Metabolic Activation: RAT, LIVER, S-9, AROCLOR 1254, Method: SUSPENSION/PLATE) “active; positive. reevaluation of results: equivocal”.

On to `CN(CC(O)CO)N=O` (stereo unspecified), for which the mutagenic call was “active; positive” (Test System: AMES SALMONELLA TYPHIMURIUM, Strain/Indicator: TA100, Metabolic Activation: HAMSTER, LIVER, S-9, 3-METHYLCHOLANTHRENE, Method: PREINCUBATION); “active; positive” (Test System: AMES SALMONELLA TYPHIMURIUM, Strain/Indicator: TA100, Metabolic Activation: HAMSTER, LIVER, S-9, PHENOBARBITAL, Method: PREINCUBATION); “active; positive” (Test System: AMES SALMONELLA TYPHIMURIUM, Strain/Indicator: TA100, Metabolic Activation: HAMSTER, LIVER, S-9, Method: PREINCUBATION); “active; positive” (Test System: AMES SALMONELLA TYPHIMURIUM, Strain/Indicator: TA100, Metabolic Activation: MOUSE, LIVER, S-9, 3-METHYLCHOLANTHRENE, Method: PREINCUBATION); “active; positive” (Test System: AMES SALMONELLA TYPHIMURIUM, Strain/Indicator: TA100, Metabolic Activation: MOUSE, LIVER, S-9, PHENOBARBITAL, Method: PREINCUBATION); “active; positive” (Test System: AMES SALMONELLA TYPHIMURIUM, Strain/Indicator: TA100, Metabolic Activation: MOUSE, LIVER, S-9, Method: PREINCUBATION). Further, the mutagenic call is, setting by setting: under setting [2], “inactive; negative”; (Test System: AMES SALMONELLA TYPHIMURIUM, Strain/Indicator: TA100, Method: PREINCUBATION) “active; positive”.

As for `c1ccc2c3c(ccc2c1)-c1cccc2cccc-3c12`, the mutagenic call was “inactive; negative” (Test System: AMES SALMONELLA TYPHIMURIUM, Strain/Indicator: TA97A, Metabolic Activation: NONE, Method: PREINCUBATION); “inactive; negative” under setting [1]; “inactive; negative” under setting [2]; “active; positive” under setting [6].
